Laboratory results reported in US20240390377A1, “COMPOSITION FOR THE PREVENTION OR TREATMENT OF NEURODEGENERATIVE OR MOTOR NEURON DISEASES COMPRISING HALOFUGINONE AS AN ACTIVE INGREDIENT” (CURAMYS CO., LTD., priority 2022, published 2024).

Columns and labels:
[1] = system: G93A mutant SOD1 transgenic mice; experiment: Western blot analysis of lumbar spinal cord in ALS animal model; format: in vivo, mouse
Method: (§1) As a control group, non-transgenic mice were injected intraperitoneally (i.p.) with vehicle (DMSO) in the same manner for the same period of time.
Specifically, the lumbar spinal cord or knee joint of the mouse of Example 6 was separated and immediately frozen at −80° C. Each lumbar spinal cord or knee joint was then homogenized and chemically treated to obtain cells. The chemically treated cells, the C2C12 cells of Example 1 or the fibroblasts of Example 5 were dissolved in a RIPA buffer (Thermo, MA, USA) with a protease inhibitor and a phosphatase inhibitor (Roche, IN, USA) and incubated on ice for 30 minutes. After centrifugation of the lysate at 13,000 rpm at 4° C. for 20 min, insoluble substances were removed. Protein concentrations were measured by BCA analysis (Pierce Biotechnology). Equal volumes of cell lysate were loaded onto SDS-PAGE gels for electrophoresis, and transferred onto nitrocellulose membranes (Amersham Protran 0.2 um NC, Amersham Pharmacia Biotech, Piscataway, NJ, USA). The membranes were then blocked with 5% (w/v) skimmilk in 1×TBST for 1 h at room temperature. After blocking, anti-RB-actin antibody (1:5000; Santa Cruz, cat #sc47778), anti-Smad2 antibody (1:1000; Cell Signaling, cat #5339), anti-p-Smad2 antibody (1:1000; Cell Signaling, cat #3108), anti-TGF-β1 antibody (1:1000; Santa Cruz, cat #sc130348), anti-α-SMA antibody (1:10000; abcam cat #ab7817), anti-MyoD antibody (1:1000; cat #sc377460), anti-collagen|antibody (1:1000; abcam cat #ab21286), anti-cleaved caspase-3 antibody (1:1000; Cell Signaling, cat #9661), anti-bax antibody (1:500; Santa Cruz, cat #sc493), anti-bcl2 antibody (1:1000; Novus Biologics, cat #NB100-56098), anti-ChAT antibody (1:1000; Millipore, cat #AB144) were treated and incubated overnight at 4° C. […] The membranes were then washed, briefly incubated with the SuperSignal West Pico Plus Chemical Substructure (Pierce Biotechnology) according to the manufacturer's procedure, and quantified with an image analyzer (Amersham Pharmacia Biotech, Piscataway, NJ, USA). β-actin was used as an internal control group. The concentration measurement of protein intensity was quantified using Image J (National Institutes of Health).
In addition, to investigate the motor neuron source of the spinal cord, motor neurons of the lumbar spinal cord were observed and counted in the same manner as described in Example 9 (FIG. 9d), and real-time qRT-PCR and Western blot analysis were performed in the same manner as described in Example 11 and Example 12 to quantitatively analyze the expression of ChAT mRNA (FIG. 9e) and ChAT protein (FIG. 9f). […]

[2] = system: G93A mutant SOD1 transgenic mice; experiment: Immunohistochemical analysis of lumbar spinal cord in ALS animal model; format: in vivo, mouse
Method: as §1
Specifically, the mice of Example 6 above were perfused with 4% paraformaldehyde (PFA) on 90 and 120 days of age, and the lumbar spinal cord and knee joints were separated. After fixation in 4% PFA for 24 hours, the knee joints were rinsed in running tap water for 24 hours and then incubated at 4° C. with continuous shaking in decalcifying solution (Calci-Clear, HS-104, National Diagnostics). The decalcification solution was replaced daily with fresh solution until the bones were easily penetrated with a needle, indicating completion of the decalcification process. Subsequently, the decalcified knee joints were rinsed in running tap water for 24 hours, and the spinal cord and knee joint samples were treated with 30% sucrose until they sank, followed by freeze protection, followed by successive cuts (14 μm). The lumbar spinal cord and knee joint tissue sections were washed three times with PBS and permeabilized with 0.5% Triton X-100 for 5 minutes. Subsequently, they were blocked with 5% bovine serum albumin (BSA) in 0.3% PBS-T at room temperature for 1 hour. The knee joint tissue sections were incubated with anti-TGF-β1 antibody (1:200; Santa Cruz, cat #sc130348), anti-α-SMA antibody (1:200; Abcam, cat #ab7817), anti-MyoD antibody (1:200; Santa Cruz, cat #sc377460), and anti-Collagen I antibody (1:200; Abcam, cat #ab21286) each, while the lumbar spinal cord sections were incubated with anti-GFAP antibody (1:200; Dako, cat #Z0334), anti-Iba1 antibody (1:200; Wako, cat #016)-20001), anti-TGF-β1 antibody (1:200; Santa Cruz, cat #sc130348), anti-TGF-β1 antibody (1:200; Abcam, cat #ab92486), and anti-IL-1β antibody (1:200; R&D Systems, cat #AF-401-NA) at 4° C. for an additional 24 hours. After washing the sections three times with PBS, they were incubated with Alexa Fluor secondary antibodies in a dark chamber at room temperature for 1 hour. […] Furthermore, analysis was performed using Leica Application Suite X software (Leica Microsystems).
Specifically, halofuginone was administered to G93A mutant SOD1 mice in the same manner as described in <Example 6>, and immunohistochemical analysis was performed in the same manner as described in <Example 8> to identify TGF-β1 and glial cells in the lumbar spinal cord. Considering that TGF-β derived from astrocytes has been reported to accelerate disease in ALS mice, each group's spinal cord was co-stained with TGF-β and GFAP during immunohistochemical analysis. In addition, Iba1 staining was performed to confirm the activity of microglia (FIGS. 9a and 9b).
In addition, to investigate the effect of glial changes in TGF-β and CNS on inflammation, IL-1β, a representative pro-inflammatory cytokine, was simultaneously stained with GFAP during immunohistochemical analysis (FIG. 9c).
In addition, halofuginone was administered to G93A mutant SOD1 mice in the same manner as described in Example 6. After sacrificing the mice at 90 days of age, Iba1 staining was performed to confirm the activation of microglia (FIG. 10a), and motor neurons were observed and counted using the same method as described above (FIG. 10b).

[3] = 120 days of age, change in DMSO TG vs DMSO Non-TG (FIG. 11b)

O=C(C[C@H]1NCCC[C@@H]1O)Cn1cnc2cc(Br)c(Cl)cc2c1=O (racemic) [halofuginone]
ChAT expression (protein) in lumbar spinal cord ([1]; 120-day-old mice, compared to DMSO Non-TG group (FIG. 9f)): preserved similarly | decreased protein expression of bcl-2 in lumbar spinal cord [1, 3]: improved | increased protein expression of bax in lumbar spinal cord [1, 3]: improved | increased protein expression of cleaved caspase-3 in lumbar spinal cord [1, 3]: improved | microglia activity (Iba1) in lumbar spinal cord, compared with changes at 120 days ([2]; 90-day-old mice (FIG. 10a)): similar | microglia (Iba1) in lumbar spinal cord ([2]; 120-day-old mice (FIG. 9a)): continuously increased | increase in TGF-β1 in lumbar spinal cord ([2]; 120-day-old mice (FIG. 9b)): significantly reduced | increase in astrocyte activity (GFAP) in lumbar spinal cord ([2]; 120-day-old mice (FIG. 9b)): significantly reduced | activated inflammation (IL-1β with GFAP activity) in lumbar spinal cord ([2]; 120-day-old mice (FIG. 9c)): suppressed
